Data published in patent publication US8901127B2, “Pyridazin derivatives as antagonists of the bradykinin B1 receptor” (Boehringer Ingelheim International GmbH, priority 2010, dated 2014).

Biological target: T1, cynomolgus BK1-receptor (Macaca fascicularis, UniProt Q3BCU0)
T1 construct: expressed in transfected cells; host or cells: CHO cells
T1 sequence (Q3BCU0 1-352): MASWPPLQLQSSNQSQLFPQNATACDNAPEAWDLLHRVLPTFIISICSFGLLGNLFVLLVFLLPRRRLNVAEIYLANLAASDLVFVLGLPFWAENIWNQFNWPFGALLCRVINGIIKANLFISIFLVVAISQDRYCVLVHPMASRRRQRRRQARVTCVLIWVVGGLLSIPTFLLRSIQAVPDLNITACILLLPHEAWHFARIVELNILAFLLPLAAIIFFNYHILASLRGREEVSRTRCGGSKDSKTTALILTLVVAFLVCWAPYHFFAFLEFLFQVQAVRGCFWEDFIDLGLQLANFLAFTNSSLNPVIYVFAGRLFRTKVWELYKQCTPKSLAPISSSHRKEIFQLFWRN
Assay: cynoBK1 receptor binding assay
Conditions: homogenate of CHO cells expressing cynomolgus BK1-receptor; radioligand 0.5 to 5.0 nM kallidin (DesArg10,Leu9), [3,4-Prolyl-3,43H(N)]; ambient temperature
Protocol: Description of the Method of Binding the cynoBK1-Receptor
CHO cells that express the cynomolgus BK1-receptor are cultivated in “HAM'S F-12 Medium”. The medium is removed from confluent cultures, the cells are washed with PBS buffer, scraped off or detached using Versene and isolated by centrifuging. Then the cells are homogenised in suspension, the homogenate is centrifuged and resuspended. After the protein content has been determined 200 μl of the homogenate (50 to 250 μg protein/assay) are incubated for 60-180 minutes at ambient temperature with 0.5 to 5.0 nM kallidin (DesArg10,Leu9), [3,4-Prolyl-3,43H(N)] and increasing concentrations of the test substance in a total volume of 250 μl. The incubation is stopped by rapid filtration through GF/B glass fibre filters that have been pre-treated with polyethyleneimine (0.3%). The radioactivity bound to the protein is measured with a TopCount NXT. The radioactivity bound in the presence of 1.0 μM kallidin (DesArg10) is defined as non-specific binding. The concentration binding curve may be analysed using computer-aided non-linear curve fitting to determine the corresponding Ki values for the test substance.

Ki: 5.6 nM
SMILES: O=C(N[C@@]1(C(=O)NCc2ncc(Nc3ccc(Cl)cc3C(F)(F)F)cc2F)CCOC1)c1cn[nH]c(=O)c1 [(5)]
